{"source": "ChEMBL document CHEMBL5543121", "about": "“Drug Repurposing of ACT001 to Discover Novel Promising Sulfide Prodrugs with Improved Safety and Potent Activity for Neutrophil-Mediated Antifungal Immunotherapy” (J Med Chem, 2024)", "key": {"[1]": {"assay": "Acute toxicity in C57BL/6 mouse assessed as effect on ALT level in serum at 500 mg/kg, po administered as single dose and measured every day for 14 days", "assay_type": "organism-based", "settings": "in vivo, 336 h, time 14 day"}, "Candida albicans [2]": {"test_system": "Candida albicans", "assay": "Induction of neutrophil-mediated antifungal immunity against Candida albicans SC5314 infected in mouse assessed as reduction in accumulation of Ly6G positive neutrophils in bone marrow at 50 to 100 mg/kg, po administered once a day for 3 days", "assay_type": "functional, organism-based", "settings": "dose 50-100 mg/kg, time 3.0 day"}, "[3]": {"test_system": "Polymorphonuclear neutrophil", "assay": "Inhibition of fungal curdlan induced CXCL1 protein expression in mouse polymorphonuclear neutrophils at 40 uM incubated for 4 hrs by ELISA", "assay_type": "functional, cell-based"}, "[4]": {"assay": "Subacute toxicity in C57BL/6 mouse assessed as histopathological changes in heart at 100 mg/kg, po administered daily for 14 days", "assay_type": "organism-based", "settings": "in vivo, 336 h, time 14 day"}, "[5]": {"assay": "AUC (0 to infinity) in male Sprague-Dawley rat at 10 mg/kg, po by LC-MS/MS analysis", "assay_type": "ADME, organism-based", "settings": "in vivo"}, "[6]": {"assay": "Half life in male Sprague-Dawley rat at 10 mg/kg, po by LC-MS/MS analysis", "assay_type": "ADME, organism-based", "settings": "in vivo"}, "Neutrophil [7]": {"test_system": "Neutrophil", "assay": "Induction of apoptosis in mouse neutrophils assessed as dead cells at 40 uM incubated for 16 hrs by Annexin V-FITC/PI staining based flow cytometry analysis (reference value: 2.04%)", "assay_type": "toxicity, cell-based"}, "[8]": {"assay": "Inhibition of fungal curdlan induced PD-L1 expression in mouse neutrophils at 40 uM relative to control", "assay_type": "functional, Neutrophil", "settings": "Mus musculus, Neutrophil"}, "[9]": {"assay": "Acute toxicity in C57BL/6 mouse assessed as histopathological changes in kidney at 500 mg/kg, po administered as single dose and measured after 14 days", "assay_type": "organism-based", "settings": "in vivo, 336 h, time 14 day"}, "Candida albicans [10]": {"test_system": "Candida albicans", "assay": "Induction of neutrophil-mediated antifungal immunity against Candida albicans SC5314 infected in mouse assessed as increase in animal survival rate at 50 to 100 mg/kg, po administered once a day for 3 days", "assay_type": "functional, organism-based", "settings": "dose 50-100 mg/kg, time 3.0 day"}, "[11]": {"assay": "Acute toxicity in C57BL/6 mouse assessed as body weight loss at 500 mg/kg, po administered as single dose and measured every day for 14 days", "assay_type": "organism-based", "settings": "in vivo, 336 h, time 14 day"}, "[12]": {"assay": "Acute toxicity in C57BL/6 mouse assessed as histopathological changes in lung at 500 mg/kg, po administered as single dose and measured after 14 days", "assay_type": "organism-based", "settings": "in vivo, 336 h, time 14 day"}, "Neutrophil [13]": {"test_system": "Neutrophil", "assay": "Induction of apoptosis in mouse neutrophils assessed as early apoptotic cells at 20 uM incubated for 16 hrs by Annexin V-FITC/PI staining based flow cytometry analysis (reference value: 26.9%)", "assay_type": "toxicity, cell-based"}, "[14]": {"assay": "Initial plasma concentration in male Sprague-Dawley rat at 2 mg/kg, iv by LC-MS/MS analysis", "assay_type": "ADME, organism-based"}, "Candida albicans [15]": {"test_system": "Candida albicans", "assay": "Induction of neutrophil-mediated antifungal immunity against Candida albicans SC5314 infected in mouse assessed as reduction in fungal clusters in kidney at 50 to 100 mg/kg, po administered once a day for 3 days by PAS staining based analysis", "assay_type": "functional, organism-based", "settings": "dose 50-100 mg/kg, time 3.0 day"}, "[16]": {"target": "Signal transducer and activator of transcription 3 (Homo sapiens, UniProt P40763)", "sequence (P40763 whole entry)": "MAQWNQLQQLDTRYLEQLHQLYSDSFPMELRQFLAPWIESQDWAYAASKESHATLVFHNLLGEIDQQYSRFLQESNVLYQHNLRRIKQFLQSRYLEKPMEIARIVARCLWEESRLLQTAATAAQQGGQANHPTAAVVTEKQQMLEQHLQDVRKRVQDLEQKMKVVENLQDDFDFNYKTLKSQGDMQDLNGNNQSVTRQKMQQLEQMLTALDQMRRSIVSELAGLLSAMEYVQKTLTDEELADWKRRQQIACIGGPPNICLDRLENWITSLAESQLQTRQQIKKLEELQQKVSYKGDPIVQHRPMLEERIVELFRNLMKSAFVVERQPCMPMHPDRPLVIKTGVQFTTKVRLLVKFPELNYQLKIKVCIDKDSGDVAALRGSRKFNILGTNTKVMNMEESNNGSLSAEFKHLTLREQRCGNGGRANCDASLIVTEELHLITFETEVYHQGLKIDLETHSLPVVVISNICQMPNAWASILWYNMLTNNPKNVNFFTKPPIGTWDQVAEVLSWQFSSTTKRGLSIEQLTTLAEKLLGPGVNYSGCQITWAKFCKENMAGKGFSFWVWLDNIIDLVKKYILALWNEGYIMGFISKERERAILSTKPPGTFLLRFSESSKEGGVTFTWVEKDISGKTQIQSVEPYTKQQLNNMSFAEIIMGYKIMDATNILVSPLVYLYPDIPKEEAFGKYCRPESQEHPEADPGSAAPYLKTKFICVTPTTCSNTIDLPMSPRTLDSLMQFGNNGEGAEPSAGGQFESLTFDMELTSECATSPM", "assay": "Binding affinity to His-tagged human recombinant STAT3 assessed as dissociation constant by MST assay"}, "[17]": {"assay": "Permeability of compound in PBS/EtOH (70:30) buffer incubated for 12 hrs by PAMPA-BBB assay", "assay_type": "ADME", "settings": "read-out: permeability"}, "[18]": {"assay": "Tmax in male Sprague-Dawley rat at 10 mg/kg, po by LC-MS/MS analysis", "assay_type": "ADME, organism-based", "settings": "in vivo"}, "Candida albicans [19]": {"test_system": "Candida albicans", "assay": "Induction of neutrophil-mediated antifungal immunity against Candida albicans SC5314 infected in cyclophosphamide-induced immunosuppressed C57BL/6 mouse at 50 to 100 mg/kg, po pretreated with CTX for 3 days followed by fungal infection and further administered with compound once a day for 3 days", "assay_type": "functional, organism-based", "settings": "dose 50-100 mg/kg, time 3.0 day"}, "Neutrophil [20]": {"test_system": "Neutrophil", "assay": "Effect on STAT3 protein level in curdlan induced mouse bone marrow neutrophils at 40 uM measured upto 60 mins by Western blot analysis", "assay_type": "functional, cell-based"}, "[21]": {"assay": "Subacute toxicity in C57BL/6 mouse assessed as change in heart weight at 100 mg/kg, po administered daily for 14 days", "assay_type": "organism-based", "settings": "in vivo, 336 h, time 14 day"}, "Neutrophil [22]": {"test_system": "Neutrophil", "assay": "Induction of apoptosis in mouse neutrophils assessed as late apoptotic cells at 20 uM incubated for 16 hrs by Annexin V-FITC/PI staining based flow cytometry analysis (reference value: 24.4%)", "assay_type": "toxicity, cell-based"}, "[23]": {"assay": "Induction of apoptosis in mouse neutrophils assessed as live cells at 20 uM incubated for 16 hrs by Annexin V-FITC/PI staining based flow cytometry analysis (reference value: 46.6%)", "assay_type": "toxicity, cell-based, Neutrophil", "settings": "read-out: Activity"}, "[24]": {"assay": "Potency index, ratio of test compound IC50 to ACT001 IC50 for cytotoxicity against mouse neutrophils assessed as reduction in cell viability incubated for 16 hrs by flow cytometry analysis", "assay_type": "toxicity, cell-based, Neutrophil", "settings": "read-out: Ratio IC50"}, "[25]": {"assay": "Acute toxicity in C57BL/6 mouse assessed as change in kidney weight at 500 mg/kg, po administered as single dose and measured after 14 days", "assay_type": "organism-based", "settings": "in vivo, 336 h, time 14 day"}, "[26]": {"assay": "Subacute toxicity in C57BL/6 mouse assessed as histopathological changes in kidney at 100 mg/kg, po administered daily for 14 days", "assay_type": "organism-based", "settings": "in vivo, 336 h, time 14 day"}, "Neutrophil [27]": {"test_system": "Neutrophil", "assay": "Induction of apoptosis in mouse neutrophils assessed as late apoptotic cells at 40 uM incubated for 16 hrs by Annexin V-FITC/PI staining based flow cytometry analysis (reference value: 24.4%)", "assay_type": "toxicity, cell-based"}, "[28]": {"assay": "Therapeutic index, ratio of IC50 for cytotoxicity against mouse neutrophils to IC50 for inhibition of fungal curdlan induced PD-L1 expression in mouse neutrophils", "assay_type": "toxicity", "settings": "read-out: Ratio IC50"}, "[29]": {"assay": "Acute toxicity in C57BL/6 mouse assessed as histopathological changes in heart at 500 mg/kg, po administered as single dose and measured after 14 days", "assay_type": "organism-based", "settings": "in vivo, 336 h, time 14 day"}, "[30]": {"assay": "Induction of apoptosis in mouse neutrophils assessed as live cells at 40 uM incubated for 16 hrs by Annexin V-FITC/PI staining based flow cytometry analysis (reference value: 46.6%)", "assay_type": "toxicity, cell-based, Neutrophil", "settings": "read-out: Activity"}, "[31]": {"target": "Signal transducer and activator of transcription 3 (Mus musculus) (UniProt P42227)", "sequence (P42227 whole entry)": "as the sequence (P40763 whole entry) above, with E760D counted along it", "assay": "Inhibition of biotinylated ACT001 probe binding to STAT3 in mouse bone marrow neutrophils at 100 uM by pulldown based Western blot analysis", "assay_type": "cell-based", "settings": "Neutrophil"}, "[32]": {"assay": "Acute toxicity in C57BL/6 mouse assessed as change in liver weight at 500 mg/kg, po administered as single dose and measured after 14 days", "assay_type": "organism-based", "settings": "in vivo, 336 h, time 14 day"}, "[33]": {"assay": "Tmax in male Sprague-Dawley rat at 2 mg/kg, iv by LC-MS/MS analysis", "assay_type": "ADME, organism-based", "settings": "in vivo"}, "[34]": {"assay": "Acute toxicity in C57BL/6 mouse assessed as histopathological changes in liver at 500 mg/kg, po administered as single dose and measured after 14 days", "assay_type": "organism-based", "settings": "in vivo, 336 h, time 14 day"}, "[35]": {"assay": "Subacute toxicity in C57BL/6 mouse assessed as effect on creatinine level in serum at 100 mg/kg, po administered daily for 14 days and measured every day", "assay_type": "organism-based", "settings": "in vivo, 336 h, time 14 day"}, "[36]": {"assay": "Acute toxicity in C57BL/6 mouse assessed as effect on urea level in serum at 500 mg/kg, po administered as single dose and measured every day for 14 days", "assay_type": "organism-based", "settings": "in vivo, 336 h, time 14 day"}, "[37]": {"assay": "Subacute toxicity in C57BL/6 mouse assessed as histopathological changes in spleen at 100 mg/kg, po administered daily for 14 days", "assay_type": "organism-based", "settings": "in vivo, 336 h, time 14 day"}, "[38]": {"assay": "Subacute toxicity in C57BL/6 mouse assessed as animal death at 100 mg/kg, po administered daily for 14 days and measured every day", "assay_type": "organism-based", "settings": "in vivo, 336 h, time 14 day"}}, "note": "Active and inactive are the calls of the source. No cut-off for these calls is given here.", "data": [{"compound": "C[C@@]1(O)CC[C@]23O[C@@]2(C)CC[C@@H]2[C@H](OC(=O)[C@H]2CS(=O)(=O)c2c(Cl)cccc2Cl)[C@@H]13", "values": [{"measurement": "Activity", "setting": "[1]", "result": "Non-Toxic"}, {"measurement": "Activity", "setting": "Candida albicans [2]", "result": "Active"}, {"measurement": "inhibition", "setting": "[3]", "result": "Active"}, {"measurement": "Activity", "setting": "[4]", "result": "Non-Toxic"}, {"measurement": "AUC(0-inf)", "setting": "[5]", "result": 182, "unit": "ng·h/mL"}, {"measurement": "half-life", "setting": "[6]", "result": 87.6, "unit": "min"}, {"measurement": "Activity", "setting": "Neutrophil [7]", "result": 2.72, "unit": "%"}, {"measurement": "inhibition at 40 µM", "setting": "[8]", "result": 80.2, "unit": "%"}, {"measurement": "Activity", "setting": "[9]", "result": "Non-Toxic"}, {"measurement": "Activity", "setting": "Candida albicans [10]", "result": "Active"}, {"measurement": "Activity", "setting": "[11]", "result": "Non-Toxic"}, {"measurement": "Activity", "setting": "[12]", "result": "Non-Toxic"}, {"measurement": "Activity", "setting": "Neutrophil [13]", "result": 29.3, "unit": "%"}, {"measurement": "C0", "setting": "[14]", "result": 191, "unit": "ng/mL"}, {"measurement": "Activity", "setting": "Candida albicans [15]", "result": "Active"}, {"measurement": "Kd", "setting": "[16]", "result": 90.5, "unit": "nM"}, {"measurement": "Papp at 12 h", "setting": "[17]", "result": 1.22, "unit": "×10⁻⁶ cm/s"}, {"measurement": "Tmax", "setting": "[18]", "result": 19.8, "unit": "min"}, {"measurement": "Activity", "setting": "Candida albicans [19]", "result": "inactive"}, {"measurement": "Activity", "setting": "Neutrophil [20]", "result": "inactive"}, {"measurement": "Activity", "setting": "[21]", "result": "Non-Toxic"}, {"measurement": "Activity", "setting": "Neutrophil [22]", "result": 27, "unit": "%"}, {"measurement": "viability at 16 h, 20 µM", "setting": "[23]", "result": 41.4, "unit": "%"}, {"measurement": "selectivity ratio at 16 h", "setting": "[24]", "result": 10.9}, {"measurement": "Activity", "setting": "[25]", "result": "Non-Toxic"}, {"measurement": "Activity", "setting": "[26]", "result": "Non-Toxic"}, {"measurement": "Activity", "setting": "Neutrophil [27]", "result": 30.8, "unit": "%"}, {"measurement": "selectivity ratio", "setting": "[28]", "result": "> 85.1"}, {"measurement": "Activity", "setting": "[29]", "result": "Non-Toxic"}, {"measurement": "viability at 16 h, 40 µM", "setting": "[30]", "result": 38, "unit": "%"}, {"measurement": "inhibition", "setting": "[31]", "result": "Active"}, {"measurement": "Activity", "setting": "[32]", "result": "Non-Toxic"}, {"measurement": "Tmax", "setting": "[33]", "result": 8.4, "unit": "min"}, {"measurement": "Activity", "setting": "[34]", "result": "Non-Toxic"}, {"measurement": "Activity", "setting": "[35]", "result": "Non-Toxic"}, {"measurement": "Activity", "setting": "[36]", "result": "Non-Toxic"}, {"measurement": "Activity", "setting": "[37]", "result": "Non-Toxic"}, {"measurement": "Activity", "setting": "[38]", "result": "Non-Toxic"}]}]}
